Calls of active or inactive are those of the source. No cut-off for these calls is given here.
Key:
[1] = Toxicity in CB17-SCID mouse xenografted with BaF3 cells expressing CCDC6-RET G810C assessed as tolerability measured at 10 to 30 mg/kg, ip qd administered for 12 days; format: organism-based; conditions: in vivo, 288 h, dose 10-30 mg/kg, time 12 day
BaF3 [2] = assay: Induction of apoptosis in mouse BaF3 cells harbouring CCDC6-RET G810C assessed as viable cells measured at 33.3 nM for 48 hrs by Annexin V-FITC staining based Guava easyCyte flow cytometric analysis (reference value: 90.90 %); format: functional; conditions: read-out: Activity
BaF3 [3] = assay: Antiproliferative activity against mouse BaF3 cells expressing wildtype rearranged during transfection kinase-CCDC6 incubated for 74 to 76 hrs by cell counting kit 8 method
BaF3 [4] = assay: Antiproliferative activity against mouse BaF3 cells incubated for 74 to 76 hrs by cell counting kit 8 method; format: functional, cell-based
BaF3 [5] = assay: Antiproliferative activity against mouse BaF3 cells expressing wildtype rearranged during transfection kinase-KIF5B incubated for 74 to 76 hrs by cell counting kit 8 method
BaF3 [6] = assay: Antiproliferative activity against mouse BaF3 cells expressing rearranged during transfection kinase V804M-KIF5B incubated for 74 to 76 hrs by cell counting kit 8 method
BaF3 [7] = assay: Antiproliferative activity against mouse BaF3 cells expressing rearranged during transfection kinase V804L-G810R incubated for 74 to 76 hrs by cell counting kit 8 method
[8] = target: Proto-oncogene tyrosine-protein kinase receptor Ret/Coiled-coil domain-containing protein 6 (Mus musculus) (UniProt P35546+D3YZP9); assay: Inhibition of wild type rearranged during transfection kinase/CCDC6 phosphorylation in mouse BaF3 cells measured at 100 nM for 4 hrs by Western blot analysis; format: cell-based
BaF3 [9] = assay: Induction of apoptosis in mouse BaF3 cells harbouring CCDC6-RET G810C assessed as early apoptotic cells measured at 33.3 nM for 48 hrs by Annexin V-FITC staining based Guava easyCyte flow cytometric analysis (reference value: 6.10 %); format: functional
BaF3 [10] = assay: Induction of apoptosis in mouse BaF3 cells harbouring CCDC6-RET G810C assessed as necrotic cells measured at 33.3 nM for 48 hrs by Annexin V-FITC staining based Guava easyCyte flow cytometric analysis (reference value: 0.35 %); format: functional
BaF3 [11] = assay: Induction of apoptosis in mouse BaF3 cells harbouring CCDC6-RET G810C assessed as late apoptotic cells measured at 100 nM for 48 hrs by Annexin V-FITC staining based Guava easyCyte flow cytometric analysis (reference value: 2.65 %); format: functional
BaF3 [12] = assay: Induction of apoptosis in mouse BaF3 cells harbouring CCDC6-RET G810C assessed as necrotic cells measured at 100 nM for 48 hrs by Annexin V-FITC staining based Guava easyCyte flow cytometric analysis (reference value: 0.35 %); format: functional
BaF3 [13] = assay: Induction of apoptosis in mouse BaF3 cells harbouring CCDC6-RET G810C assessed as early apoptotic cells measured at 300 nM for 48 hrs by Annexin V-FITC staining based Guava easyCyte flow cytometric analysis (reference value: 6.10 %); format: functional
BaF3 [14] = assay: Induction of apoptosis in mouse BaF3 cells harbouring CCDC6-RET G810C assessed as late apoptotic cells measured at 300 nM for 48 hrs by Annexin V-FITC staining based Guava easyCyte flow cytometric analysis (reference value: 2.65 %); format: functional
BaF3 [15] = assay: Induction of apoptosis in mouse BaF3 cells harbouring CCDC6-RET G810C assessed as necrotic cells measured at 300 nM for 48 hrs by Annexin V-FITC staining based Guava easyCyte flow cytometric analysis (reference value: 0.35 %); format: functional
BaF3 [16] = assay: Induction of apoptosis in mouse BaF3 cells harbouring CCDC6-RET G810R assessed as viable cells measured at 33.3 nM for 48 hrs by Annexin V-FITC staining based Guava easyCyte flow cytometric analysis (reference value: 89.5 %); format: functional; conditions: read-out: Activity
BaF3 [17] = assay: Induction of apoptosis in mouse BaF3 cells harbouring CCDC6-RET G810R assessed as early apoptotic cells measured at 33.3 nM for 48 hrs by Annexin V-FITC staining based Guava easyCyte flow cytometric analysis (reference value: 6.46 %); format: functional
BaF3 [18] = assay: Induction of apoptosis in mouse BaF3 cells harbouring CCDC6-RET G810R assessed as late apoptotic cells measured at 33.3 nM for 48 hrs by Annexin V-FITC staining based Guava easyCyte flow cytometric analysis (reference value: 3.4 %); format: functional
BaF3 [19] = assay: Induction of apoptosis in mouse BaF3 cells harbouring CCDC6-RET G810R assessed as viable cells measured at 100 nM for 48 hrs by Annexin V-FITC staining based Guava easyCyte flow cytometric analysis (reference value: 89.5 %); format: functional; conditions: read-out: Activity
BaF3 [20] = assay: Induction of apoptosis in mouse BaF3 cells harbouring CCDC6-RET G810R assessed as early apoptotic cells measured at 100 nM for 48 hrs by Annexin V-FITC staining based Guava easyCyte flow cytometric analysis (reference value: 6.46 %); format: functional
BaF3 [21] = assay: Induction of apoptosis in mouse BaF3 cells harbouring CCDC6-RET G810R assessed as necrotic cells measured at 100 nM for 48 hrs by Annexin V-FITC staining based Guava easyCyte flow cytometric analysis (reference value: 0.64 %); format: functional
BaF3 [22] = assay: Induction of apoptosis in mouse BaF3 cells harbouring CCDC6-RET G810R assessed as viable cells measured at 300 nM for 48 hrs by Annexin V-FITC staining based Guava easyCyte flow cytometric analysis (reference value: 89.5 %); format: functional; conditions: read-out: Activity
BaF3 [23] = assay: Induction of apoptosis in mouse BaF3 cells harbouring CCDC6-RET G810R assessed as early apoptotic cells measured at 300 nM for 48 hrs by Annexin V-FITC staining based Guava easyCyte flow cytometric analysis (reference value: 6.46 %); format: functional
BaF3 [24] = assay: Antitumor activity against mouse BaF3 cells harbouring CCDC6-RET G810C cells xenografted in CB17-SCID mouse assessed as reduction in tumor growth at 10 mg/kg ip qd administered for 12 days measured every 2 days relative to control; format: functional; conditions: BaF3, 288 h, time 12 day, read-out: TGI
BaF3 [25] = assay: Antitumor activity against mouse BaF3 cells harbouring CCDC6-RET G810C cells xenografted in CB17-SCID mouse assessed as reduction in tumor growth at 30 mg/kg ip qd administered for 12 days measured every 2 days relative to control; format: functional; conditions: BaF3, 288 h, time 12 day, read-out: TGI
BaF3 [26] = conditions: Mus musculus, dose 100.0 nM, time 4.0 hrs
BaF3 [27] = conditions: Mus musculus, dose 100.0 nM, time 4.0 hrs; remark: listed apart in the source
BaF3 [28] = conditions: Mus musculus, dose 100.0 nM, time 4.0 hrs; remark: listed apart in the source
BaF3 [29] = conditions: Mus musculus, dose <= 100.0 nM, time 4.0 hrs
BaF3 [30] = conditions: Mus musculus, CB17-SCID, Tumor/tissue, dose 10-30 mg/kg, route ip, time 13.0 day
BaF3 [31] = conditions: Mus musculus, CB17-SCID, Tumor/tissue, dose 10-30 mg/kg, route ip, time 13.0 day; remark: listed apart in the source

Proto-oncogene tyrosine-protein kinase receptor Ret/Coiled-coil domain-containing protein 6 (Mus musculus), sequence (D3YZP9 whole entry, looked up, the tested form may be a part): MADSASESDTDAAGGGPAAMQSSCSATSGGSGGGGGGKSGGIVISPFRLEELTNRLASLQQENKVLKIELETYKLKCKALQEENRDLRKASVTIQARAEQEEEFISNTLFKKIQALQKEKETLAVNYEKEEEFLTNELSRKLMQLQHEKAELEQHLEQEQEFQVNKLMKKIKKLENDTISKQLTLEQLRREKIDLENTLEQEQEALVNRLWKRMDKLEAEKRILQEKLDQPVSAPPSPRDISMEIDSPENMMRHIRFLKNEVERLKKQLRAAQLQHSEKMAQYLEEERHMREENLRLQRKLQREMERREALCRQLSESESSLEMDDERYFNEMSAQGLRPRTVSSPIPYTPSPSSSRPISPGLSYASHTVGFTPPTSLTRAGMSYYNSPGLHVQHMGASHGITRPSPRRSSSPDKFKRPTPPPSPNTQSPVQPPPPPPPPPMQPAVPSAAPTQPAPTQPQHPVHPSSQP
Proto-oncogene tyrosine-protein kinase receptor Ret/Coiled-coil domain-containing protein 6 (Mus musculus), sequence (P35546 whole entry, looked up, the tested form may be a part): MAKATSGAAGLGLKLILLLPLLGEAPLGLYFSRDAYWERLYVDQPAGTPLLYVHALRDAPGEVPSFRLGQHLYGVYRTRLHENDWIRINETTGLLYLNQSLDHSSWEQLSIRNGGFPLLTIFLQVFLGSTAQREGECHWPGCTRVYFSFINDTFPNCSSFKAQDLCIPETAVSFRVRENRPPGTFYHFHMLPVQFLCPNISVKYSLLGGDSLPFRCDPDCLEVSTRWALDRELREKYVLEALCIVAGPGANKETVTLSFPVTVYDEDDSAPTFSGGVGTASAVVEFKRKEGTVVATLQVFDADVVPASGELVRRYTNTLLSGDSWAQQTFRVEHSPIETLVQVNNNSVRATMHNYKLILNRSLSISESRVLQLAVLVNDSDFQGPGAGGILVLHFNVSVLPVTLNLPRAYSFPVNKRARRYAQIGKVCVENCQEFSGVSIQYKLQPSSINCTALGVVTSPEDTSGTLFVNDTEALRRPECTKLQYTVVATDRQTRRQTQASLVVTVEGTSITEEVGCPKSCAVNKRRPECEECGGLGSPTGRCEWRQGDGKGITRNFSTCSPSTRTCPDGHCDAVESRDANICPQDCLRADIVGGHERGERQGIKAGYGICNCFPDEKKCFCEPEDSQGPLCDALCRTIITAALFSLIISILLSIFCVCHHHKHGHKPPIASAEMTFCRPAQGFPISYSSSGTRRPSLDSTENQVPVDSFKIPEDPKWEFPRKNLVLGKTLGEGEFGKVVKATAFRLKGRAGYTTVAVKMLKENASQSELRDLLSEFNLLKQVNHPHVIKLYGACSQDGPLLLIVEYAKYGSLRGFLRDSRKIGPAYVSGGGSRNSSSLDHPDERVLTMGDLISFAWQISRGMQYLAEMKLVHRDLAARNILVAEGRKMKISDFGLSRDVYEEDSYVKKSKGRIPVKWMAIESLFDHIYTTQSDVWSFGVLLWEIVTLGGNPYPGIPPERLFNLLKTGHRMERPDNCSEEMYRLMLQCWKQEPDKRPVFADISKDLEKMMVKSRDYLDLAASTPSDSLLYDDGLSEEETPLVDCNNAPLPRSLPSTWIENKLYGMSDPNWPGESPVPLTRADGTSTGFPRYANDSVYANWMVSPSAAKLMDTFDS

In the case of `COc1cc2nccc(Oc3ccc(Nc4nn(C)cc4C(=O)NC45CC6CC(CC(C6)C4)C5)c(F)c3)c2cc1C(N)=O`, the Activity [1] is reported as “Non-Toxic”, the viability at 0.0333 µM (BaF3 [2]) is reported as 90.8% and the IC50 (BaF3 [3]) is reported as 5.6 nM. The IC50 (BaF3 [4]) was over 10000 nM, the IC50 (BaF3 [5]) was 6.1 nM and the IC50 (BaF3 [6]) was 53.1 nM. The IC50 (BaF3 [7]) was 120 nM, the inhibition [8] was “Active” and the Activity (BaF3 [9]) was 7.39%. The Activity (BaF3 [10]) was 0.28%, the Activity (BaF3 [11]) was 2.39% and the Activity (BaF3 [12]) was 0.25%. For the same compound, the Activity (BaF3 [13]) was 53.4%, the Activity (BaF3 [14]) was 3.08% and the Activity (BaF3 [15]) was 0.41%. The viability at 0.0333 µM (BaF3 [16]) was 91.1%, the Activity (BaF3 [17]) was 6.47% and the Activity (BaF3 [18]) was 2.25%. It also gave a viability at 0.1 µM (BaF3 [19]) of 88.6%, an Activity (BaF3 [20]) of 9.4% and an Activity (BaF3 [21]) of 0.23%. It also gave a viability at 0.3 µM (BaF3 [22]) of 63.9%, an Activity (BaF3 [23]) of 32.67% and an inhibition in vivo at 10 mg/kg (BaF3 [24]) of 17.1%. For the same compound, the inhibition in vivo at 30 mg/kg (BaF3 [25]) was 66.9%, the inhibition (BaF3 [26]) was “Active” and the inhibition (BaF3 [27]) was “Active”. The inhibition (BaF3 [28]) was “Active”, the inhibition (BaF3 [29]) was “Dose-Dependent Effect” and the inhibition (BaF3 [30]) was “Active”. For the same compound, the inhibition (BaF3 [31]) was “Active”.
